Experimental data published in patent publication US6506769B2, “Heterocyclic compounds useful as inhibitors of tyrosine kinases” (Boehringer Ingelheim Pharmaceuticals, Inc., priority 1999, dated 2003).

| melting point | SMILES |
| --- | --- |
| 175 to 177 °C | Cc1c(/C=C/CN2CCOCC2)[nH]c(=O)c2c1ccc1nc(Nc3c(Cl)cccc3Cl)n(C)c12 [Example 18, 2-(2,6-Dichlorophenylamino)-1,6-dimethyl-7-(3-morpholin-4-yl-propen-1-yl)-1,8-dihydro-imidazo[4,5-h]-isoquinolin-9-one] |
| 231 to 234 °C | Cc1c(CNCc2ccccc2)[nH]c(=O)c2c1ccc1nc(Nc3c(Cl)cccc3Cl)n(C)c12 [Example 19, 7-Benzylaminomethyl-2-(2,6-dichlorophenylamino)-1,6-dimethyl-1,8-dihydro-imidazo[4,5-h]-isoquinolin-9-one] |
| > 300 °C | Cc1c(-c2cnco2)[nH]c(=O)c2c1ccc1nc(Nc3c(Cl)cccc3Cl)n(C)c12 [Example 20, 2-(2,6-Dichlorophenylamino)-1,6-dimethyl-7-oxazol-5-yl-1,8-dihydro-imidazo[4,5-h]isoquinolin-9-one] |
| > 300 °C | Cc1c(-c2cncn2C)[nH]c(=O)c2c1ccc1nc(Nc3c(Cl)cccc3Cl)n(C)c12 [Example 21, 2-(2,6-Dichlorophenylamino)-1,6-dimethyl-7-(3-methyl-3H-imidazol-4-yl)-1,8-dihydro-imidazo[4,5-h]isoquinolin-9-one] |
| > 300 °C | O=c1[nH]c2ccccc2c2ccc3nc(Nc4c(Cl)cccc4Cl)[nH]c3c12 [Example 26, 2-(2,6-Dichlorophenylamino)-3,5-dihydro-imidazo[4,5-i]phenanthridin-4-one] |
| > 300 °C (dec.) | Cn1c(Nc2c(Cl)cccc2Cl)nc2ccc3c4c([nH]c(=O)c3c21)CCC4 [Example 27, 2-(2,6-Dichlorophenylamino)-3-methyl-5,6,7,8-tetrahydro-3H-1,3,5-triaza-dicyclopenta[a,f]naphthalen-4-one] |
| > 300 °C | Cc1c(/C=C/CN)[nH]c(=O)c2c1ccc1nc(Nc3c(Cl)cccc3Cl)n(C)c12 [Example 28, 7-(3-Aminopropen-1-yl)-2-(2,6dichlorophenylamino)-1,6-dimethyl-1,8-dihydro-imidazo[4,5-h]-isoquinolin-9-one] |

Further lines, the compound ahead of its results:

| SMILES | melting point |
| --- | --- |
| CC1(C)C(=O)NC(=O)c2c1ccc1nc(Nc3c(Cl)cccc3Cl)[nH]c21 [Example 1, 2-(2,6-Dichlorophenylamino)-6,6-dimethyl-1H,6H-imidazo[4,5-h]isoquinoline-7,9-dione] | 290 to 292 °C |
| CC1(C)CNC(=O)c2c1ccc1nc(Nc3c(Cl)cccc3Cl)[nH]c21 [Example 2, 2-(2,6-Dichlorophenylamino)-6,6-dimethyl-7,8-dihydro-1H,6H-imidazo[4,5-h]isoquinoline-9-one] | 287 to 290 °C |
| Cc1[nH]c(=O)c2c(ccc3nc(Nc4c(Cl)cccc4Cl)[nH]c32)c1C [Example 3a, 2-(2,6-Dichlorophenylamino)-6,7-dimethyl-1,8-dihydro-imidazo[4,5-h]isoquinoline-9-one] | > 300 °C |
| CC1(C)C(=O)NC(=O)c2c1ccc1nc(Nc3c(Cl)cccc3Cl)sc21 [Example 5, 2-(2,6-Dichlorophenylamino)-6,6-dimethyl-6H-thiazolo[4,5-h]isoquinoline-7,9-dione] | > 300 °C |
| Cc1[nH]c(=O)c2c(ccc3nc(Nc4c(Cl)cccc4Cl)n(C)c32)c1CC(=O)N1CCOCC1 [Example 7, 2-(2,6-Dichlorophenylamino)-1,7-dimethyl-6-(2-morpholin-4-yl-2-oxoethyl)-1,8-dihydro-imidazo[4,5-h]isoquinoline-9-one] | > 300 °C |
| Cc1[nH]c(=O)c2c(ccc3nc(Nc4c(Cl)cccc4Cl)n(C)c32)c1CCN1CCOCC1 [Example 8, 2-(2,6-Dichlorophenylamino)-1,7-dimethyl-6-(2-morpholin-4-yl-ethyl)-1,8-dihydro-imidazo[4,5-h]isoquinoline-9-one] | 285 to 290 °C |
| CCOC(=O)Cc1c(C)[nH]c(=O)c2c1ccc1nc(Nc3c(Cl)cccc3Cl)n(C)c12 [Example 9, 2-(2,6-Dichlorophenylamino)-1,7-dimethyl-9-oxo-1,8-dihydro-imidazo[4,5-h]isoquinolin-6-yl acetic acid ethyl ester] | 280 to 285 °C (dec.) |
| Cc1[nH]c(=O)c2c(ccc3nc(Nc4c(Cl)cccc4Cl)n(C)c32)c1CCO [Example 10, 2-(2,6-Dichlorophenylamino)-1,7-dimethyl-6-(2-hydroxyethyl)-1,8-dihydro-imidazo[4,5-h]isoquinoline-9-one] | > 300 °C |
| COC(=O)/C=C/c1[nH]c(=O)c2c(ccc3nc(Nc4c(Cl)cccc4Cl)n(C)c32)c1C [Example 12, 3-[2-(2,6-Dichlorophenylamino)-1,6-dimethyl-9-oxo-8,9-dihydro-1H-imidazo[4,5-h]isoquinolin-7-yl]-acrylic acid methyl ester] | > 300 °C |
| Cc1c(/C=C/CO)[nH]c(=O)c2c1ccc1nc(Nc3c(Cl)cccc3Cl)n(C)c12 [Example 14, 2-(2,6-Dichlorophenylamino)-1,6-dimethyl-7-(3-hydroxy-propen-1-yl)-1,8-dihydro-imidazo[4,5-h]isoquinolin-9-one] | 298 to 300 °C |
| C=Cc1[nH]c(=O)c2c(ccc3nc(Nc4c(Cl)cccc4Cl)n(C)c32)c1C [Example 15, 2-(2,6-Dichlorophenylamino)-1,6-dimethyl-7-vinyl-1,8-dihydro-imidazo[4,5-h]isoquinoline-9-one] | > 300 °C |
| C=CC(O)c1[nH]c(=O)c2c(ccc3nc(Nc4c(Cl)cccc4Cl)n(C)c32)c1C (stereo not shown) [Example 16, 2-(2,6-Dichlorophenylamino)-1,6-dimethyl-7-(1-hydroxyprop-2-en-1-yl)-1,8-dihydro-imidazo[4,5-h]isoquinolin-9-one] | 235 to 236 °C |
